From US20190175526A1, “METHODS FOR TREATING CANCER” (Macau University of Science and Technology, priority 2017, published 2019)

Legend:
[1] = system: H460 cells; test: MTT cell viability assay, H460 cells; assay type: cell-based; details: Homo sapiens, NCI-H460, cell line H460, 72 hours
Description: (§1) Cell lines A549 and H460 were purchased from ATCC and cultivated in RPMI 1640 medium supplemented with 10% FBS (Gibco, Big Cabin, Okla., Me., USA), 1% penicillin-streptomycin solution and maintained at 37° C. in a CO2 incubator with 5% CO2. Compound 3039-0164 was dissolved in DMSO and stored at −40° C. Cells were seeded on a 96-well microplate with 3,000 cells/well, cultured overnight for cell adhesion, and treated with DMSO or various concentrations of compound 3039-0164 for 72 hours. Then, each well was added with 10 μL MTT (5 mg/mL) and incubated for 4 hours at […], followed by adding 100 μL acidic isopropanol (10% SDS and 0.01 mol/L HCl). Finally, an absorbance at 570 nm was measured by a microplate reader (Tecan, Morrisville, N.C., USA). Cell viability was calculated relative to untreated controls, with results based on at least three independent experiments. Two human non-small cell lung cancer (NSCLC) cell lines, A549 and H460, were treated with an increasing concentration (0, 2.5, 5.0, 7.5 and 10.0 μM) of compound 3039-0164 for 72 hours, and then cell viability was determined by MTT assay. As shown in FIG. 2a and FIG. 2b, the cell viability of A549 and H460 were both decreased by compound 3039-0164 in a dose-dependent manner.

[2] = system: A549 cells; test: MTT cell viability assay, A549 cells; assay type: cell-based; details: Homo sapiens, cell line A459 (A549), 72 hours
Description: as §1

[3] = biological target: PRMT5 (Homo sapiens, UniProt O14744); test: PRMT5 enzymatic assay (AlphaLISA); assay type: biochemical; details: 60 minutes at room temperature, read-out: IC50, PRMT5 enzyme activity
Sequence of PRMT5 (O14744 2-637 limits assumed): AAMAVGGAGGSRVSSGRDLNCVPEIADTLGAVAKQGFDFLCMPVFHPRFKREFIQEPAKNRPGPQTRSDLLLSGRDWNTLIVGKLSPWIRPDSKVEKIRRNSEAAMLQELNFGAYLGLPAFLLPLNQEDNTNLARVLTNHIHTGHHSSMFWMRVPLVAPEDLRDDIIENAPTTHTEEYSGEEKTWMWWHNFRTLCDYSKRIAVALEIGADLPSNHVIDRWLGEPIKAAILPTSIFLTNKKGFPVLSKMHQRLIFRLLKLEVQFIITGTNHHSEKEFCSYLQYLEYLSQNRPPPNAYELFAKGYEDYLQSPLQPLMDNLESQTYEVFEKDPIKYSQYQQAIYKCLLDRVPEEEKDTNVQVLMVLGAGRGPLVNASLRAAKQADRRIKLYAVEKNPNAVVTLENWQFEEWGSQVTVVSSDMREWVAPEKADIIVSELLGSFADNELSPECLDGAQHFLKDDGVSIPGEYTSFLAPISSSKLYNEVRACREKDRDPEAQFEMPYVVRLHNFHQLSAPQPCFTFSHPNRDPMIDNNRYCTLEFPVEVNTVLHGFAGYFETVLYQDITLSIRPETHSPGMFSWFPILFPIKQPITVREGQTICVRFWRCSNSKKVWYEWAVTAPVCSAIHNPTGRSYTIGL
Sequence of PRMT5 (Q9BQA1 2-342 partner limits assumed): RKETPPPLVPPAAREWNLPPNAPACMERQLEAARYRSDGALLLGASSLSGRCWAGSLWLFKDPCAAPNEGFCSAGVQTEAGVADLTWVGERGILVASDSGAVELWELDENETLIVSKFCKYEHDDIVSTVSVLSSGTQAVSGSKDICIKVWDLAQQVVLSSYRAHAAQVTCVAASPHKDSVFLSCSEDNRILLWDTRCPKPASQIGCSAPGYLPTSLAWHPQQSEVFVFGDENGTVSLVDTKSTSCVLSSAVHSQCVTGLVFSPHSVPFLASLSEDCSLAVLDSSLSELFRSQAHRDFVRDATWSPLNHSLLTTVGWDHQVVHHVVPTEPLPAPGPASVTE
Description: PRMT5 enzymatic assay was carried out by Shanghai ChemPartner Co. (998 Halei Road, Pudong New Area, Shanghai, 201203, China). To measure IC50 values, 10 concentrations of compound 3039-0164 were tested. PRMT5 was purchased from BPS bioscience (Cat. No. 51045), and SAM/SAH were purchased from Sigma. Inc (Cat. No. A7007-100MG and No. A9384-25MG). Compound 3039-0164 was prepared as 10 mM stock in DMSO and diluted to final concentration in DMSO. PRMT5 and substrates were incubated with indicated concentrations of compounds in a 384-well plate for 60 minutes at room temperature. Then, acceptor and donor solutions were added to label the residual substrates of PRMT5. The labeling process lasted for 60 minutes at room temperature, followed by reading endpoint with EnSpire Plate Reader with Alpha mode (PerkinElmer). To investigate the influence of compound 3039-0164 on enzymatic activity and its “on-target” effect, AlphaLISA assay was carried out.

IC50 [1]: 8.64 ± 1.46 µM | IC50 [2]: 7.79 ± 1.8 µM | IC50 [3]: 63.2 ± 4.5 µM
SMILES: O=C1c2ccccc2C(=O)c2c(NCCCN(CCO)CCO)cccc21 [compound 3039-0164]
